Source: ChEMBL document CHEMBL1147271, “New cytotoxic metabolites from a marine sponge Homaxinella sp” (2004)
In brackets after ≈: the same amount, converted by molar mass.

Experiments:
Type in all cases: functional
Conditions in all cases: read-out: ED50 (the source's name)
A549 = assay: Cytotoxicity against human A549 cells
SK-OV-3 = assay: Cytotoxicity against human SKOV3 cells
SK-MEL-2 = assay: Cytotoxicity against human SK-MEL-2 cells
XF498 = assay: Cytotoxicity against human XF498 cells
HCT-15 = assay: Cytotoxicity against human HCT15 cells

SMILES | EC50 (A549) | EC50 (SK-OV-3) | EC50 (SK-MEL-2) | EC50 (XF498) | EC50 (HCT-15)
CC/C=C/C/C=C\C/C=C\C/C=C\C[C@@]1(OC)C=CC(=O)O1 [HOMAXINOLIDE C] | > 30 µg/mL | > 30 µg/mL | 14.9 µg/mL (≈ 49.3 µM) | > 30 µg/mL | 34.8 µg/mL (≈ 115 µM)
COc1cccc2c1C(=O)c1c(O)c3c(c(O)c1C2=O)C[C@@](O)(C(=O)CO)C[C@@H]3O[C@H]1C[C@H](N)[C@H](O)[C@H](C)O1 [DOXORUBICIN] | 0.07 µg/mL (≈ 0.129 µM) | 0.24 µg/mL (≈ 0.442 µM) | 0.12 µg/mL (≈ 0.221 µM) | 0.12 µg/mL (≈ 0.221 µM) | 0.17 µg/mL (≈ 0.313 µM)
CCCCC/C=C\C/C=C\C/C=C\C[C@@]1(O)C=CC(=O)C1 | 5.4 µg/mL (≈ 18.7 µM) | 4.4 µg/mL (≈ 15.3 µM) | 2.6 µg/mL (≈ 9.01 µM) | 4.9 µg/mL (≈ 17 µM) | 2.9 µg/mL (≈ 10.1 µM)
CC/C=C\C/C=C\C/C=C\C/C=C\C[C@]1(OC)C=CC(=O)O1 [HOMAXINOLIDE B] | 32.1 µg/mL (≈ 106 µM) | > 30 µg/mL | 4.5 µg/mL (≈ 14.9 µM) | > 30 µg/mL | 17.5 µg/mL (≈ 57.9 µM)
CCCCC/C=C\C/C=C\C/C=C\CO | > 30 µg/mL | 19.8 µg/mL (≈ 95 µM) | 74.1 µg/mL (≈ 356 µM) | 30 µg/mL (≈ 144 µM) | 25.5 µg/mL (≈ 122 µM)
CCCCC/C=C\C/C=C\C/C=C\C[C@@]1(OC)C=CC(=O)O1 [HOMAXINOLIDE A] | 10.1 µg/mL (≈ 33.2 µM) | 16.1 µg/mL (≈ 52.9 µM) | 2.7 µg/mL (≈ 8.87 µM) | 9.9 µg/mL (≈ 32.5 µM) | 8.9 µg/mL (≈ 29.2 µM)
